Reference: patent publication US9006221B2, “Method of modulating ship activity” (H. Lee Moffitt Cancer Center and Reserach Institute, Inc., priority 2008, dated 2015)

Key:
SHIP1 = biological target: T1, SHIP1 (Mus musculus, UniProt Q9ES52); experiment: Fluorescence polarization (FP) assay of SHIP1 enzymatic activity; format: biochemical; settings: confirmatory FP assay of screening hits
T1 construct: The asterisk in lanes 1 and 3 indicates the ˜145 kD full-length SHIP protein; His tag (C); made in house; host or cells: E. coli Rosetta-Gami 2 (DE3) pLys
T1 sequence (Q9ES52 1-1191): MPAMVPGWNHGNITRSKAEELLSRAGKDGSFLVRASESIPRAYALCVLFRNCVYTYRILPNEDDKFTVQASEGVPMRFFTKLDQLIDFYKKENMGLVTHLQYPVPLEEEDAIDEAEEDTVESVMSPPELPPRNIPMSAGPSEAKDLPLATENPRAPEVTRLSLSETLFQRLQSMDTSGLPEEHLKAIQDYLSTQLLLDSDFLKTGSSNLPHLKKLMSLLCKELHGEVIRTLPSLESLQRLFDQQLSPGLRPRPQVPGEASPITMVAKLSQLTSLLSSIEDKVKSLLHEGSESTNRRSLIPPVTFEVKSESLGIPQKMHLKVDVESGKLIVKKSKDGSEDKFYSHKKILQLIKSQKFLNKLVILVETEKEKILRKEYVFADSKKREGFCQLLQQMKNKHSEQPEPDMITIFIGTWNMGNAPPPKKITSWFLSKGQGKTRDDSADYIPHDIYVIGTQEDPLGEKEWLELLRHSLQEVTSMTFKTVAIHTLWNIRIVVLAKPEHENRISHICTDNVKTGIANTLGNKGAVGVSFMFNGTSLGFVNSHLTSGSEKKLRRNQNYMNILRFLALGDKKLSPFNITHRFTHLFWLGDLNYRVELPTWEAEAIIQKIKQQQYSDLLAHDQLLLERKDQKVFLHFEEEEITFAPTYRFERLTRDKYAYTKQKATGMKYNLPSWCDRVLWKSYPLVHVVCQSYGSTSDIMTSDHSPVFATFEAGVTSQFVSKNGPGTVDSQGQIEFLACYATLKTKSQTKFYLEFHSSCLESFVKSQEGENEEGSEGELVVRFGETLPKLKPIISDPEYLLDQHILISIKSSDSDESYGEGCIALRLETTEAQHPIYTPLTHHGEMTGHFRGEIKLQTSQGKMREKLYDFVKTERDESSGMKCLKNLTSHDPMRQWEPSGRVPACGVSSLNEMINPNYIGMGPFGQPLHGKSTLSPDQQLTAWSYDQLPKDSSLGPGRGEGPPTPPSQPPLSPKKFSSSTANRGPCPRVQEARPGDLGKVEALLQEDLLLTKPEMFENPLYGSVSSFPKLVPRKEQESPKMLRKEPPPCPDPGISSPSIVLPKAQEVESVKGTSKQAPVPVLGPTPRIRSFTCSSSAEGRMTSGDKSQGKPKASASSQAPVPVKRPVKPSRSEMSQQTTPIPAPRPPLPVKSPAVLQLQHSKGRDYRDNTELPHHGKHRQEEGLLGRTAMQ
From the text: SHIP is detectable in this expression system as a ˜145 kD protein (FIG. 1a, lane 1). Because of an in-frame Histidine (His) tag on the COOH terminus of SHIP, it can then be purified from E. coli lysates by FPLC over a Ni-containing resin. (FIG. 1a, lane 3). Purified SHIP was routinely obtained in sufficient quantities, using this E. coli expression system and FPLC purification, to conduct high-throughput screening (HTS) of chemical libraries for compounds that inhibit SHIP activity. However, prior to screening, a fluorescence polarization (FP) assay that detects SHIP activity in either a 96- or […] format, seen in FIG. 1b, screen was established. SHIP generates PI(3,4)P2 from its PI(3,4,5)P3 substrate. In the FP assay enzymatic generation of PI(3,4)P2 by SHIP reduces polarized fluorescence (mP) because the fluorescent PI(3,4)P2 “probe” is displaced from a detector protein that binds specifically to PI(3,4)P2. The FP assay is highly specific for SHIP activity in these lysates. No significant 5′-inositol phosphatase activity was detected in E. coli lysates harboring an ‘empty’ pet24b expression vector insert when FPLC fractions where SHIP typically elutes with the imidazole step gradient are analyzed in the FP assay (FIG. 1c).
After preparing purified SHIP and establishing the FP assay, two different chemical libraries, comprising a total of ˜2100 different chemical compounds, were screened. Seventeen compounds capable of inhibiting SHIP activity at μM concentrations were identified in this screen. The compounds were verified for SHIP activity inhibition by repeating the FP assay with the compounds obtained from their respective wells in the replicates of the masterplates for these libraries FIGS. 2-6).
A fluorescence polarization (FP) assay to detect and quantify SHIP2 activity has been previously described [Drees B E, et al., Comb Chem High Throughput Screen (2003) 6(4):321-330], but no assay has been described for the detection of SHIP1. A fluorescence polarization (FP) assay was developed to detect the activity of recombinant SHIP1 (see FIGS. 15a and b) and the FP assay was utilized as a rapid screen to detect compounds in chemical libraries that have inhibitory activity against SHIP1. This screen identified 3α-aminocholestane as a potent inhibitor of SHIP1 enzymatic activity (FIG. 15c). […] This high degree of selectivity could be important, since loss of PTEN function promotes malignancy in parenchymal and hematopoietic tissues. [Yuan T L & Cantley L C Oncogene (2008) 27(41):5497-5510; Zhang J, et al., Nature (2006) 441(7092):518-522; Yilmaz O H, et al., Nature (2006) 441(7092):475-482]
Assay of SHIP1 enzymatic activity: A fluorescent polarization (FP) assay that detects the 5′-inositol phosphatase activity of SHIP1 was developed based on a previously established protocol [Drees B E, et al., Comb Chem High Throughput Screen (2003) 6(4):321-330] and was obtained from Echelon Biosciences (Salt Lake City, USA). Modifications of the protocol included the application of SHIP1 in the assay and an increase in the concentration of MgCl2 to […] to maximize the activity of SHIP1 in this assay. Each enzymatic reaction was performed in a 96 well working plate and added in the following order and concentration: Recombinant SHIP1 (0.1 μg) in PBS+20 mM MgCl2, 100 μM of each individual compound from the NCI Diversity Set and then PI(3,4,5)P3 substrate diluted 1:10 in H2O. The enzymatic reaction was incubated for 30 min at room temperature. The detector, reaction mixture and probe were then combined according to the SHIP2 protocol. Malachite Green Phosphatase Assay Kit was obtained from Echelon Biosciences (Salt Lake City, USA). Assays for SHIP2 were performed according to the manufacturer's protocol. The concentration of SHIP1 and SHIP2 per reaction mixture was […]. PTEN was used at the concentration recommended by the manufacturer.

[1] = test system: priming of allogeneic T cell responses by C57Bl6/J splenocytes; experiment: One-way mixed leukocyte reaction (MLR), stimulator splenocytes treated in vitro; format: cell-based, mouse; settings: splenocytes cultured with compound 72 hr, added at 0, 24 and 48 hr
Protocol: Mean proliferation of 100K BALB/C responders as measured by ^3H-Thymidine uptake after exposure to 200K irradiated BL6 stimulators that were treated with the indicated compound, 1×DMSO or 1× EtOH prior to initiation of the mixed leukocyte reaction (MLR). 1×DMSO serves as the allogeneic MLR positive control for all compounds with the exception of HLM85321 for which 1× EtOH is the positive control. [*p<0.05, **p<0.01].
Spleen cells and lymphe node LN cells are normally robust stimulators of allogeneic T cell responses in the one-way mixed leukocyte reaction (MLR) assay, but they are very poor stimulators when obtained from mice with germline or induced SHIP-deficiency. […]
Mixed leukocyte reactions (MLR): Following RBC lysis, irradiated (2000 Rads) BL6 splenocytes (stimulators) at 8×10^5 cells/well were combined with BALB/c splenocytes (responders) at 4×10^5 cells/well in a one-way MLR assay. […] Incorporated [3H]thymidine was quantitated using a Packard TopCount NXT. Specific [3H]thymidine incorporation into genomic DNA was calculated as the average of the mean (±SEM) of sextuplicate wells. […]

## CCOC(=O)c1c(C)c(C)n2c1NC(=O)C2 [NSC 624983]
SHIP1
  SHIP inhibitory activity in FP assay: SHIP inhibitory activity

## O=C1CN2CCN(CC2)CC(=O)Nc2ccc(cc2)S(=O)(=O)c2ccc(cc2)NC(=O)CN2CCN(CC2)CC(=O)Nc2ccc(cc2)S(=O)(=O)c2ccc(cc2)N1 [NSC 36806]
SHIP1
  SHIP inhibitory activity in FP assay: SHIP inhibitory activity

## O=C1OC2(c3ccc(O)cc3Oc3cc(O)ccc32)c2c1c(-c1ccccc1)c(-c1ccccc1)c(-c1ccccc1)c2-c1ccccc1 [NSC 119886]
SHIP1
  SHIP inhibitory activity in FP assay: SHIP inhibitory activity

## Cc1ccc(C)c(/C(=N/N=C(N)N)C2CC2)c1.Cl [NSC75513, 2-[(E)-[cyclopropyl-(2,5-dimethylphenyl)methylidene]amino]guanidine chloride]
[1]
  ability of splenocytes to prime allogeneic T cell responses by BALB/C responders (3H-thymidine uptake): significantly inhibited
